Literature values, collected in publication PMC8982769 (Open Forum Infectious Diseases, 2022).

Columns and labels:
[1] = tested on: enterococci carrying vanA, vanB, and vanC genes; details: in vitro
VRE = details: within 48 to 72 hours
[2] = humans
[3] = within 6 to 12 hours after IV administration
[4] = up to 24 grams of parenteral HPβCD daily for 15 days

Oritavancin diphosphate
MIC90 [1]: ≤ 0.5 mg/L
log kill (VRE): > 3 log

2-hydroxypropyl-β-cyclodextrin [HPβCD]
Elimination half-life [2]: 1.7 to 1.9 h
dose recovered in the urine [3]: 100%
side effects [4]: no side effects were observed
